Measured values: patent publication US20240109912A1, “TRICYCLIC PYRIMIDINES AS CYCLIN-DEPENDENT KINASE 7 (CDK7) INHIBITORS” (JANSSEN PHARMACEUTICA NV, priority 2020, published 2024)
Like-named read-outs stand apart in the source and are kept apart here.

Key:
[1] = test system: RNA polymerase II Serine 5 phosphorylation (CDK7) in A549 cells
[2] = molecular target: CDK7/cyclinH/MAT1 trimeric complex (Homo sapiens (Human), UniProt P50613); experiment: In vitro CDK7 assay, potency of irreversible covalent inhibitors (kinact/KI); details: for Ki: CDK7 (20 nM enz.) (KI, μM), 20 nM enz.; for kinact: read-out: CDK7 (20 nM enz.) (kinact, s^−1), 20 nM enz.
[3] = test system: RNA polymerase II Serine 5 phosphorylation in A549 cells overexpressing CDK7 mutant (C312S); experiment: Imaging-based cellular RNA PolII Ser5 phosphorylation assay in A549 cells overexpressing CDK7-mutant (C312S); format: cell-based, human; details: Homo sapiens, A549, A549 cells overexpressing CDK7 mutant (C312S); read-out: CDK7_ A549 mutant hCDK7(pIC50) (converted)
Outline: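 A stably transduced A549 pool overexpressing CDK7 C312S, a mutant that blocks covalent binding at Cys312, while retaining endogenous wild-type CDK7 was used. Ser5 phosphorylation was measured by imaging, and IC50 values were derived.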

[4] = read-out: CDK7 (20 nM enz.) (kinact/ KI, M^−1*s^−1), 20 nM enz.

Chain of CDK7/cyclinH/MAT1 trimeric complex (P50613 whole entry): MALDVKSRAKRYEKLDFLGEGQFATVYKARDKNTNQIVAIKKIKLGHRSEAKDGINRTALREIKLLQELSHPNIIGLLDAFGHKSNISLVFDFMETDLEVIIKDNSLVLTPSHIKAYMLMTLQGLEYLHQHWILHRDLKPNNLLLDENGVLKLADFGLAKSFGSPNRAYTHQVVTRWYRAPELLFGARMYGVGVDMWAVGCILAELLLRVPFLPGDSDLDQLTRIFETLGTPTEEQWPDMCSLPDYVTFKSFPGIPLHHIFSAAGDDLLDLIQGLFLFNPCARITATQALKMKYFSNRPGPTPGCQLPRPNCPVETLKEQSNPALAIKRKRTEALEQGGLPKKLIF
Chain of CDK7/cyclinH/MAT1 trimeric complex (P51946 whole entry partner): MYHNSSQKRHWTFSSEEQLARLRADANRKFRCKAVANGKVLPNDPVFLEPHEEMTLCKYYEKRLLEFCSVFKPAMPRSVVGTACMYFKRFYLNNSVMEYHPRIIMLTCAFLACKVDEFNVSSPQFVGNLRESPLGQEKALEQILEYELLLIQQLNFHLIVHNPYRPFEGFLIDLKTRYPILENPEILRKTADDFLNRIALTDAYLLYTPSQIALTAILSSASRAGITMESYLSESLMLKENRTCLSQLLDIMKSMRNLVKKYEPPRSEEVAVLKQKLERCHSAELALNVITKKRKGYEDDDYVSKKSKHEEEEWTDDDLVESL
Chain of CDK7/cyclinH/MAT1 trimeric complex (P51948 whole entry partner): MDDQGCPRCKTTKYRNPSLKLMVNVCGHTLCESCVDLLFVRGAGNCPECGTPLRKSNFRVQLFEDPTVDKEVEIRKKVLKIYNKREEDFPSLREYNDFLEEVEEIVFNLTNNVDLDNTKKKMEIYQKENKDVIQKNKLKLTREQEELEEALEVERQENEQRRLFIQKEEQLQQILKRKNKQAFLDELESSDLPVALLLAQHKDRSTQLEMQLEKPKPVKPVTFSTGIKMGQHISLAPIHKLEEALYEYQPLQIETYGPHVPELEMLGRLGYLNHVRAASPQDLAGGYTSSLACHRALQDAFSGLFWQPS

| Compound | IC50 [1] [nM] | Ki [2] [µM] | kinact [2] [s⁻¹] | kinact/KI [2, 4] [M⁻¹ s⁻¹] | IC50 [3] [nM] | melting point [°C] | kinact/KI ([2]; read-out: CDK7 (20 nM enz.) (kobs/[I], M^−1*s^−1), 20 nM enz.) [M⁻¹ s⁻¹] |
| --- | --- | --- | --- | --- | --- | --- | --- |
| C=CC(=O)N1CCC(N2CC(c3cc4c(c(C(F)(F)F)c3)OCc3c(ncnc3-c3cnn(C)c3)N4)C2)CC1 [compound 44] | 1170 | 0.67 | 4.31e-05 | 64.4 | > 10000 | 178 | – |
| C=CC(=O)N1CC(N2CCC(c3cc(C)c4c(c3)Nc3ncnc(N5CCS(=O)(=O)CC5)c3[C@H](C)O4)CC2)C1 [compound 32] | ~12.6 | 0.0249 | 4.14e-05 | 1660 | > 10000 | > 300 | 1280 |
| C=CC(=O)N1CCC(N2CC(c3cc4c(c(C)n3)OCc3c(ncnc3N3CCS(=O)(=O)CC3)N4)C2)CC1 [compound 63] | 1700 | 0.174 | 3.22e-05 | 186 | > 10000 | 190 | – |

More lines, now with the values ahead:

| IC50 [1] [nM] | Ki [2] [µM] | kinact [2] [s⁻¹] | kinact/KI [2, 4] [M⁻¹ s⁻¹] | IC50 [3] [nM] | melting point [°C] | kinact/KI ([2]; read-out: CDK7 (20 nM enz.) (kobs/[I], M^−1*s^−1), 20 nM enz.) [M⁻¹ s⁻¹] | Compound |
| --- | --- | --- | --- | --- | --- | --- | --- |
| 166 | 0.254 | 9.43e-05 | 372 | > 10000 | 267 | – | CC#CC(=O)N1CCN(C2CCN(c3cc(C)c4c(c3)Nc3ncnc(N5CCS(=O)(=O)CC5)c3CO4)CC2)CC1 [compound 137] |
| 7240 | 0.427 | 4.81e-05 | 113 | > 10000 | > 300 | – | C=CC(=O)N1CC(N2CC(c3cc4c(c(C)n3)OCc3c(ncnc3N3CCS(=O)(=O)CC3)N4)C2)C1 [compound 64] |
